Test system: Winter barley
Assay: Post-emergence test/greenhouse: damage to crop plants
Assay type: in vivo
Details: greenhouse, about three weeks after application
Method: The active compound (flucarbazone-sodium and propoxycarbazone-sodium were each used as WG 70) or safener components are in each case dissolved in a few ml (generally 2-3 ml) of solvent (generally acetone or N,N-dimethyl-formamide), and the solutions are combined and then—if appropriate after addition of an emulsifier—diluted with water to the desired concentration. In general, an aqueous spray liquor was prepared using 0.5% of the additive Renex-36. The test plants are grown under controlled conditions (temperature, light, atmospheric humidity) in a greenhouse. The test plants are sprayed when they have reached a height of 5-15 cm. The concentration of the spray liquor is chosen such that the particular amounts of active compound desired are applied in 500 l of water/ha. After spraying, the pots with the test plants are kept in a greenhouse chamber under controlled conditions (temperature, light, atmospheric humidity) until the test has ended. About three weeks after the application, the degree of damage to the crop plants is rated in % damage in comparison to the development of the untreated control. The figures denote: • 0%=no damage (like untreated control) • 100%=total destruction/damage

Row | Structure (SMILES) | Damage Winter barley (in %) (application rate 8 g of a.i./ha) [%] | Damage Winter barley (in %) (application rate 2 g of a.i./ha) [%] | Damage Winter barley (in %) (application rate 4 g of a.i./ha, 0%=no damage, 100%=total destruction) [%]
1 | COc1nn(C(=O)NS(=O)(=O)c2ccccc2OC(F)(F)F)c(=O)n1C [flucarbazone-sodium, 2-(2-trifluoromethoxyphenylsulphonylaminocarbonyl)-4-methyl-5-methoxy-2,4-dihydro-3H-1,2,4-triazol-3-one] | 40 | – | –
2 | CCCOc1nn(C(=O)NS(=O)(=O)c2ccccc2C(=O)OC)c(=O)n1C [propoxycarbazone-sodium, 2-(2-methoxycarbonylphenylsulphonylaminocarbonyl)-4-methyl-5-n-propoxy-2,4-dihydro-3H-1,2,4-triazol-3-one] | – | 35 | 60

Reference: patent US7615514B2, “Selective herbicides based on substituted arylsulphonylaminocarbonyl-triazolinones and safeners” (Bayer CropScience AG, priority 2001, dated 2009)
